Measured values: US10575515B2, “Methods and compositions for preserving tissues and organs” (The General Hospital Corporation, priority 2010, dated 2020)
One block for each compound: values may come before it.

Columns and labels:
hepatocytes [1] = assay: Hepatocyte viability after 60 min incubation with isotonic mixtures of sugars and DMSO; assay type: cell-based
Protocol: Significant loading of 3OMG can be achieved within 20 minutes (FIG. 37a). The hepatocyte viability when incubated with 3OMG is statistically equal to other saccharides that are not cryopreservative for mammalian cells (FIG. 37b). By comparison, incubation with a common cryopreservative dimethyl sulfoxide (DMSO) under similar conditions reduces viability to 12%.
Hepatocytes can be loaded with 3OMG within 20 minutes in vitro. FIG. 37A illustrates that the kinetics of 3OMG uptake show significant loading of cells with 3OMG within 20 minutes, and even more rapid release with washing; inventors can currently perfuse the livers in stable condition for more than 6 hrs, which is more than sufficient for loading with 3OMG.

[2] = Supercooling in cryovials at subzero temperatures in selected media formulations; assay type: physicochemical
Protocol: We tested a variety of preservation media and additives for achieving SZNF storage overnight in a controlled rate freezer. We were able to reach −10° C. without any freezing in supplemented University of Wisconsin (UW) and Hypothermosol (HTS) by proper tuning of the rate of temperature reduction. […] FIG. 48 depicts the temperature profile for successful subzero cooling at −10° C.

hepatocytes [3] = assay: Cryopreservation of 3OMG-loaded hepatocytes, post-thaw viability by trypan blue exclusion; assay type: cell-based; conditions: Hepatocyte; 200 mM 3OMG, storage in liquid nitrogen up to one week; read-out: post-thaw cell viability (percentage of unfrozen control)
Protocol: Hepatocytes were incubated with 200 mM 3OMG for 60 min and then washed with sugar-free medium for 30 min. Controls were incubated in glucose-free DMEM (no-sugar control), sucrose (non-permeable/non-intracellular control), and D-glucose (permeable but metabolizable control). Following incubation, cells were pelleted by centrifugation for 5 min, supernatant decanted, and resuspended in cold HypoThermosol solution (HTS) with 200 mM 3OMG, 2DG, sucrose, or D-glucose (1×10^6 cell/mL). Cell suspensions were transferred to 1 mL cryogenic vials and cooled at −1° C./min to −6° C., seeded to induce the formation of extracellular ice by application of cold forceps to the exterior of the cryovials, and then cooled at −1° C./min to −80° C., and finally transferred to liquid nitrogen (−196° C.) for storage lasting 1 to 7 days. Following storage, samples were rapidly thawed in a 37° C. water bath for 2 min with gentle agitation. The samples were then diluted 1:10 in D-glucose-free DMEM and incubated for 10 min at 37° C. to wash out the loaded sugar compounds. Samples were then centrifuged, supernatant decanted, and resuspended in culture medium. The viability of the cryopreserved cells was determined immediately after thawing using a trypan blue exclusion assay and expressed as percent of unfrozen control. […]

rat livers = assay: Subzero nonfreezing storage of whole rat livers at −5° C., histology (H&E); conditions: loaded with 3OMG, 24 hours at −5° C., then NELP with red blood cells
hepatocytes [4] = assay: Long-term hepatic functions of cryopreserved hepatocytes in collagen sandwich culture; assay type: cell-based; conditions: albumin, urea, cytochrome P450; 3OMG loaded and frozen
Protocol: Methods: Cells were cultured in a collagen sandwich for […], and media collected daily were analyzed for albumin and urea. All values were normalized by viable cell number (DNA content) and shown as o the means±se (n>9). Urea secretion and resorufin formation were statistically not different (p=0.51 and p=0.3 respectively). Albumin production on days 7-13 were statistically different at p=0.014 (FIG. 39).

[5] = tested on: C3A cells (human liver carcinoma line); assay: Cryopreservation of C3A cells with troglitazone, post-thaw viability by trypan blue exclusion; assay type: cell-based; conditions: 25 μM troglitazone 30 mins, cryopreservation in liquid nitrogen, vs without
Source text: Inventors performed a molecular docking study to identify ligands of PPAR-γ, a transcription factor that is known to have the ability to modulate metabolic rate (see FIG. 34), where inventors identified Troglitazone as a candidate. Inventors also performed preliminary studies to test the effect of supplementation in preservation efficacy. In these initial studies inventors used C3A cells (human liver carcinoma line) and cryopreservation rather than supercooling, due to availability of data to be used as controls. Inventors observed that Troglitazone increased post-thaw viability ˜2.5 fold. We are currently testing Troglitazone and other compounds with primary rat hepatocytes both in cryopreservation and supercooled storage. Nearly confluent C3A cell flasks were trypsinized in PBS solution; cells were sedimented by centrifugation (10 min at […] at 4 degree C.). The medium was replaced by adding 2 mL of HTS and the cell pallets were re-suspended in the HTS by gentle pipetting. The cell samples in 1 mL aliquots were put in 1.5 mL cryovials. The samples were frozen in a controlled rate freezer using a freeze controlled Cryobath (Cryologic, Victoria, Australia) with a CL-8800 temperature controller (Cryologic). A cooling rate of 1 degree C./min was used. The samples were seeded with ice at −4 degrees C. by using a cotton bulb dipped in liquid nitrogen. […]

hepatocytes [6] = assay: SZNF storage of cells at −4° C. with metabolic supplement, cell viability; assay type: cell-based; conditions: tandem SZNF with metabolic suppressant
Protocol: Inventors are testing a variety of metabolic supplements to enhance viability during preservation. One of the most successful additives inventors tested is magnolol, a biphenolic compound with multiple properties (including tumor suppression and antioxidative capabilities). […] Note that this study was performed early on where stable preservation temperature in plate culture models was −4° C., testing at −10° C. is currently in progress.
The cells were preserved on collagen coated 6 well plates and cultured at 37° C. for one day prior to preservation. Cells were then preserved 48 hours at −4° C.; viability was determined 1 hr after rewarming

temperature reached without any freezing ([2]; overnight, controlled rate freezer): −15 °C | fraction of the time the protocol is stable ([2]; −15° C. in HTS): about 50% | long-term hepatic functions vs non-frozen hepatocytes (hepatocytes [4]): similar
SMILES: CO[C@@H]([C@H](O)[C@H](O)CO)[C@@H](O)C=O [3OMG, 3-O-methyl-glucose]
toxicity for hepatocytes (hepatocytes [1]; concentration range studied, 60 min incubation): minimally toxic | viability at 200000 µM (hepatocytes [3]): > 50% | histology after storage and NELP perfusion (rat livers): perfect preservation of microstructure

SMILES: Cc1c(C)c2c(c(C)c1O)CCC(C)(COc1ccc(CC3SC(=O)NC3=O)cc1)O2 (stereo not drawn) [Troglitazone]
increase of post-thaw viability [5]: ~2.5 fold

SMILES: C[S+](C)[O-] [dimethyl sulfoxide (DMSO), dimethyl sulfoxide, reference compound]
hepatocyte viability after incubation (hepatocytes [1]; incubation 60 min, isotonic mixture): 12%

SMILES: C=CCc1ccc(O)c(-c2cc(CC=C)ccc2O)c1 [magnolol, 5,5′-Diallyl-2,2′-biphenyldiol]
preservation of viability of cells compared to SZNF in the absence of metabolic suppressant agent (hepatocytes [6]): at least 60%
